Test results published in patent US12173309B2, “Compounds for increasing genome editing efficiency” (Max-Planck-Gesellschaft zur Förderung der Wissenschaften …, priority 2017, dated 2024).

Test system: 409-B2 iCRISPR-Cas9D10A iPSCs
Test: Precise genome editing (PGE) efficiency with iCRISPR Cas9D10A double nicking and ssODN donors, Illumina sequencing/CRISPResso
Assay type: cell-based, human
Conditions: Cas9D10A; for PGE increase (mean change vs control): 20 μM NU7026, 0.01 μM TSA, 0.5 μM MLN4924, 5 μM NSC 15520, CRISPY mix = all four
Protocol: FIG. 1: Genome editing and analysis flowchart. iCRISPR 409-B2 iPSCs are treated with 2 μg/ml doxycycline at least for 2 days to induce Cas9 or Cas9D10A expression. Reverse transfection with RNAiMAX, gRNA (7.5 nM each), ssODN (10 nM) and the small molecules to be evaluated is carried out in a 96 well plate for 1 day. The amount of cells used gives ˜80% confluency. Cells are then expanded for 3 days with regular media change. After harvest follows DNA extraction, PCR amplification of targeted loci, Illumina sequencing and CRISPResso (Pinello et al. 2016) sequence analysis for amount of indels and precise genome editing.
Cells were incubated with media containing 2 μg/ml doxycycline (Clontech, 631311) 2 days prior to lipofection. Lipofection (reverse transfection) was done using the alt-CRISPR manufacturer's protocol (IDT) with a final concentration of 7.5 nM of each gRNA and 10 nM of the respective ssODN. In brief, 0.75 μl RNAiMAX (Invitrogen, 13778075) and the respective oligonucleotides were separately diluted in 25 μl OPTI-MEM (Gibco, 1985-062) each and incubated at room temperature for 5 min. Both dilutions were mixed to yield 50 μl of OPTI-MEM including RNAiMAX, gRNAs and ssODNs. The lipofection mix was incubated for 20-30 min at room temperature. During incubation cells were dissociated using EDTA for 5 min and counted using the Countess Automated Cell Counter (Invitrogen). The lipofection mix, 100 μl containing 25.000 dissociated cells in mTeSR1 supplemented with Y-27632, 2 μg/ml doxycycline and the respective small molecule(s) to be tested were throughoutly mixed and put in one well of a 96 well covered with Matrigel Matrix (Corning, 35248). Media was exchanged to regular mTeSR1 media after 24 hours.
Three days after lipofection cells were dissociated using Accutase (SIGMA, A6964), pelleted, and resuspended in 15 μl QuickExtract (Epicentre, QE0905T). Incubation at 65° C. for 10 min, 68° C. for 5 min and finally 98° C. for 5 min was performed to yield ssDNA as a PCR template. Primers for each targeted loci of CALD1, KATNA1 and SLITRK1 containing adapters for Illumina sequencing were ordered from IDT (Coralville, USA). PCR was done in a T100 Thermal Cycler (Bio-Rad) using the KAPA2G Robust PCR Kit (Peqlab, 07-KK5532-03) with supplied buffer B and 3 μl of cell extract in a total volume of 25 μl. The thermal cycling profile of the PCR was: 95° C. 3 min; 34×(95° 15 sec, 65° C. 15 sec, 72° C. 15 sec); 72° C. 60 sec. P5 and P7 Illumina adapters with sample specific indices were added in a second PCR reaction (Kircher et al. 2012) using Phusion HF MasterMix (Thermo Scientific, F-531L) and 0.3 μl of the first PCR product. The thermal cycling profile of the PCR was: 98° C. 30 sec; 25× (98° 10 sec, 58° C. 10 sec, 72° C. 20 sec); 72° C. 5 min. Amplifications were verified by size separating agarose gel electrophoresis using EX gels (Invitrogen, G4010-11). The indexed amplicons were purified using Solid Phase Reversible Immobilization (SPRI) beads (Meyer, Kircher 2010). Double-indexed libraries were sequenced on a MiSeq (Illumina) giving paired-end sequences of 2×150 bp. After base calling using Bustard (Illumina) adapters were trimmed using leeHom (Renaud et al. 2014).
CRISPresso (Pinello et al. 2016) was used to analyse sequencing data from CRISPR genome editing experiments for percentage of wildtype, targeted nucleotide substitutions (TNS), indels and mix of TNS and indels. Parameters used for analysis were ‘-w 20’, ‘--min_identity_score 70’ and ‘--ignore_substitutions’ (analysis was restricted to amplicons with a minimum of 70% similarity to the wildtype sequence and to a window of 20 bp from each gRNA; substitutions were ignored, as sequencing errors would be falsely characterized as NHEJ-events). Sequencing data from colonies after single cell seeding (FIGS. 3B and C) was further analyzed by evaluating the actual read sequences using SAMtools. Clonal colonies were differentiated from mixed colonies using sequence read proportions. […]

Row | Structure (SMILES) | PGE increase (mean change vs control) (CALD1) [fold] | additional increase in PGE on addition to the mix of NU7026 and TSA (0.5 μM MLN4924, p<0.01) [fold] | PGE increase (mean change vs control) (KATNA1) | PGE increase (mean change vs control) (SLITRK1) | effect on PGE of further addition to the mix of NU7026, TSA and MLN4924 (all loci, 5 μM NSC 15520, then 1 μM NSC 19630, 20 μM AICAR, 1 μM RS-1 (FIG. 5A)) | higher PGE frequency than without the molecules (pooled across CALD1, KATNA1, SLITRK1 (FIG. 5A), p<0.001) [fold]
1 | NS(=O)(=O)OC[C@@H]1C[C@@H](n2ccc3c(N[C@H]4CCc5ccccc54)ncnc32)C[C@@H]1O [MLN4924, Pevonedistat] | 1.2 | 1.3 | 1.1 fold | 1.3 fold |  | 
2 | CC(C)C1=CC23CCC4C(C)(C(=O)O)CCCC4(C)C2CC1C(C(=O)O)C3C(=O)O (stereo not drawn) [NSC 15520, Fumaropimaric acid] | 1.4 |  | no effect | no effect | slightly increased | 
3 | O=c1cc(N2CCOCC2)oc2c1ccc1ccccc12 [NU7026] | 1.5 |  | 2.6 fold | 2.5 fold |  | 2.3
